Data taken from patent US8367873B2, “Phenyl-substituted bicyclooctane-1,3-dione derivatives” (Bayer Cropscience AG, priority 2008, dated 2013).

What was measured:
Format in all cases: in vivo
cereals = assay: Container trials with cereals in the greenhouse, use of safeners (Mefenpyr 1 day prior to herbicide application); details: 28 days after application
Method: Seeds of monocotylidonous and dicotylidonous weed and crop plants are placed in sandy loam in wood fibre pots, covered with soil and cultivated in a greenhouse under good growth conditions. Two to three weeks after sowing, the test plants are treated at the one-leaf stage. The test compounds, formulated as wettable powders (WP), are then with a water application rate of 600 l/ha (converted), with 0.2% of wetting agent added, sprayed onto the green parts of the plants in different amounts. After the test plants have been kept in the greenhouse under optimum growth conditions for about three weeks, the effect of the preparations is assessed visually in comparison to untreated controls (herbicidal effect in percent: 100% effect=the plants have died, 0% effect=like control plants).
If it is to be additionally tested as to whether safeners can improve the plant compatibility of test substances in the case of crop plants, the following options are used for applying the safeners: • Seeds of the crop plants are, before sowing, dressed with safener substance (the amount of safener stated in percent, based on the weight of the seed) • Before the application of the test substances, the crop plants are sprayed with the safener at a certain application rate per hectare (usually one day before the application of the test substances) • The safener is applied together with the test substance as a tank mix (the amount of safener stated in g/ha or as a ratio, based on the herbicide).
Container Trials with Cereals in the Greenhouse

Alopecurus myosuroides [1] = assay: Herbicidal post-emergence action; details: post-emergence method, 80 g/ha
Summary of the method: (§1)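 One-leaf-stage greenhouse plants sprayed with WP at graded amounts (600 l/ha, 0.2% wetting agent); ~3 wk later, visual % effect rated vs untreated controls, 100% = dead, 0% = like control.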

Echinocloa crus-galli [2] = assay: Herbicidal post-emergence action; details: post-emergence method, 80 g/ha
Summary of the method: as §1

Setaria viridis [3] = assay: Herbicidal post-emergence action; details: post-emergence method, 80 g/ha
Summary of the method: as §1

Lolium multiflorum [4] = assay: Herbicidal post-emergence action; details: post-emergence method, 80 g/ha
Summary of the method: as §1

Alopecurus myosuroides [5] = assay: Herbicidal pre-emergence action; details: pre-emergence method, 80 g/ha, greenhouse, visual assessment vs untreated controls
Summary of the method: (§2)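 Seeds sown in sandy loam and covered with soil; WP-formulated compounds applied as aqueous suspension (600 l/ha water, 0.2% wetting agent) to the soil surface at various rates. Greenhouse-grown; emergence damage scored visually after three weeks versus untreated controls (0% = like control, 100% = plants dead).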

Echinocloa crus-galli [6] = assay: Herbicidal pre-emergence action; details: pre-emergence method, 80 g/ha, greenhouse, visual assessment vs untreated controls
Summary of the method: as §2

Setaria viridis [7] = assay: Herbicidal pre-emergence action; details: pre-emergence method, 80 g/ha, greenhouse, visual assessment vs untreated controls
Summary of the method: as §2

Lolium multiflorum [8] = assay: Herbicidal pre-emergence action; details: pre-emergence method, 80 g/ha, greenhouse, visual assessment vs untreated controls
Summary of the method: as §2

[9] = system: monocotylidonous and dicotylidonous weed and crop plants; assay: Herbicidal pre-emergence action (other test plants); details: pre-emergence method, 80 g/ha, greenhouse, visual assessment vs untreated controls
Summary of the method: as §2

[10] = system: monocotylidonous and dicotylidonous weed and crop plants; assay: Herbicidal post-emergence action (other test plants); details: post-emergence method, 80 g/ha
Summary of the method: as §1

Compound	Summer barley observed (%) (cereals; 25 g of a.i./ha)	Summer barley observed (%) (cereals; 50 g of a.i./ha)	Summer barley observed (%) (cereals; 100 g of a.i./ha)	Summer wheat observed (%) (cereals; 12.5 g of a.i./ha)	Summer wheat observed (%) (cereals; 25 g of a.i./ha)	Summer wheat observed (%) (cereals; 50 g of a.i./ha)	Summer wheat observed (%) (cereals; 100 g of a.i./ha)	herbicidal effect against ALOMY (Alopecurus myosuroides) (Alopecurus myosuroides [1]) [%]	herbicidal effect against ECHCG (Echinochloa crus-galli) (Echinocloa crus-galli [2]) [%]	herbicidal effect against SETVI (Setaria viridis) (Setaria viridis [3]) [%]	herbicidal effect against LOLMU (Lolium multiflorum) (Lolium multiflorum [4]) [%]	herbicidal effect ALOMY (Alopecurus myosuroides [5]) [%]	herbicidal effect ECHCG (Echinocloa crus-galli [6]) [%]	herbicidal effect SETVI (Setaria viridis [7]) [%]	herbicidal effect LOLMU (Lolium multiflorum [8]) [%]	herbicidal effect AVEFA [9] [%]	herbicidal effect against AVEFA (Avena fatua) [10] [%]
CCc1cc(C)cc(C)c1C1=C(O)C2CC3(CC2C1=O)OCCCO3 (stereo not shown) [I-a-58]	5	10	15	10	15	20	60	100	100	100	100	70	100	100	100	70	
CCOC(=O)OC1=C(c2c(CC)cc(C)cc2CC)C(=O)C2CC3(CC12)OC(C)CC(C)O3 (mixture of isomers) [I-c-10]		50	95	15	50	95		90		90	100	100	100	90	100	80	100
CCOC(=O)OC1=C(c2c(C)cc(C)cc2OC)C(=O)C2CC3(CC12)OCCO3 (racemic) [I-c-64]								80	100	100	100	60	50	70	100	70	80
CCc1cc(C)cc(CC)c1C1=C(O)C2CC(=NOCC(C)C)CC2C1=O (stereo not shown) [I-a-69]								90	100	80	100	50	20	80	70	70	30
CCOC(=O)OC1=C(c2c(C)cc(C)cc2C)C(=O)C2CC3(CC12)OCCO3 (stereo not shown) [I-c-44]								40	100	90	100	50	0	0	100	50	80
CCc1cc(C)cc(CC)c1C1=C(OC(=O)C(C)C)C2CC3(CC2C1=O)OCC(C)CO3 (stereo not shown) [I-b-14]								100	100	100	100	100	100	100	100	70	100
CCOC(=O)OC1=C(c2c(C)cc(C)cc2C)C(=O)C2CC3(COC(C)(C)O3)CC12 (mixture of isomers) [I-c-54]								90	90	40	80	90	0	0	90	40	0
COC(=O)OC1=C(c2c(C)cc(C)cc2C)C(=O)C2CC3(COC(C)(C)O3)CC12 (mixture of isomers) [I-c-56]								90	80	40	80	90	20	0	90	20	20
CCc1cc(C)cc(C)c1C1=C(OC(=O)C(C)C)C2CC3(COC(C)(C)O3)CC2C1=O (stereo not shown) [I-b-69]								90	100	60	100	100	100	80	100	80	10
CCc1cc(C)cc(CC)c1C1=C(OC(=O)OC(C)C)C2CC3(COC(C)(C)O3)CC2C1=O (stereo not shown) [I-c-2]								90	40	40	100	90	40	60	100	50	40
COc1cc(C)cc(C)c1C1=C(OC(=O)C(C)C)C2CC3(CC2C1=O)OCCO3 (stereo not shown) [I-b-65]								90	100	100	100	60	90	70	100	70	90
C=C1CC2C(=O)C(c3c(C)cc(C)cc3CC)=C(OC(=O)C(C)C)C2C1 (stereo not shown) [I-b-72]								0	100	90	0	80	100	100	100	60	0
CCc1cc(C)cc(CC)c1C1=C(OC(=O)C(C)(C)CCl)C2CC3(CC2C1=O)OCCCO3 (stereo not shown) [I-b-25]								100	100	100	100	90	100	60	100	70	100
C=C1CC2C(=O)C(c3c(C)cc(C)cc3C)=C(OC(=O)OC)C2C1 (racemic) [I-c-46]								40	80	90	90	80	80	80	70	50	0
COC(=O)OC1=C(c2c(C)cc(C)cc2C)C(=O)C2CC3(CC12)OCC=CCO3 (racemic) [I-c-52]								100	90	100	100	60	50	70	100	70	80
